In patent publication US20030087887A1, “Novel fusidic acid derivatives” (priority 2001, published 2003):
In brackets after ≈: the same amount, converted by molar mass.

What was measured:
Assay type in all cases: cell-based
Candida albicans ZA = assay: MIC, agar diffusion, Candida albicans ZA; details: read-out: in vitro activities MIC
From the text: (§1) In vitro investigations have shown a relatively high potency of compounds of the invention against all bacteria including gram-positive and gram-negative strains (Staphylococci, Streptococci, Corynebacteriae, Mycobacteriae, Proteus, Propionibacterium, Pseudomonas, Neisseriae, E. coli) and fungal strains (Candida and Aspergillus). […] In addition, the studies of post-antibiotic effects point towards a strong bactericidal effect of the compounds of the invention. […] The potency of new polyaminated fusidic acid analogues is estimated by comparing the inhibition of growth of different microorganisms produced by known concentrations of the analogue to be examined and a reference compound such as fusidic acid. The microbiological assay set up is in agreement with the European Pharmacopoeia 3rd edition (1997). It is an agar diffusion method where the same volume of the tested solution is added to cavities in agar. The inhibition zones are function of the concentration of the fusidic acid analogue used. All assays are run with fusidic acid as reference substance.

S. aureus CJ234F = assay: MIC, agar diffusion, S. aureus CJ234F; details: Staphylococcus aureus; S. aureus CJ234F (MRSA, Fus. resistant); read-out: in vitro activities MIC
From the text: as §1

[1] = system: Corynebacterium xerosis FF; assay: MIC, agar diffusion, Corynebacterium xerosis FF; details: read-out: in vitro activities MIC
From the text: as §1

Asbergillus niger ZM35 = assay: MIC, agar diffusion, Asbergillus niger ZM35; details: Aspergillus niger, read-out: in vitro activities MIC
From the text: as §1

E. coli HA165 = assay: MIC, agar diffusion, E. coli HA165; details: Escherichia coli, read-out: in vitro activities MIC
From the text: as §1

[2] = system: Pseudomonas aeruginosa BA17; assay: MIC, agar diffusion, Pseudomonas aeruginosa BA17; details: read-out: in vitro activities MIC
From the text: as §1

S. aureus CJ200 = assay: MIC, agar diffusion, S. aureus CJ200; details: Staphylococcus aureus, read-out: in vitro activities MIC
From the text: as §1

S. epidermis CK5 = assay: MIC, agar diffusion, S. epidermis CK5; details: Staphylococcus epidermidis, read-out: in vitro activities MIC
From the text: as §1

[3] = system: Streptococcus pyogenes EC88; assay: MIC, agar diffusion, Streptococcus pyogenes EC88; details: read-out: in vitro activities MIC
From the text: as §1

S. aureus CJ247 = assay: MIC, agar diffusion, S. aureus CJ247; details: Staphylococcus aureus, read-out: in vitro activities MIC
From the text: as §1

[4] = system: Propionibacterium acnes FN33; assay: MIC, agar diffusion, Propionibacterium acnes FN33; details: Cutibacterium acnes, read-out: in vitro activities MIC
From the text: as §1

[5] = system: Saccaromyces cervisiae ZZ7; assay: MIC, agar diffusion, Saccaromyces cervisiae ZZ7; details: Saccharomyces cerevisiae, read-out: in vitro activities MIC
From the text: as §1

S. aureus N6 = assay: MIC, agar diffusion, S. aureus N6; details: Staphylococcus aureus; S. aureus N6 (Fus. resistant); read-out: in vitro activities MIC
From the text: as §1

[6] = system: Streptococcus faecium EI19; assay: MIC, agar diffusion, Streptococcus faecium EI19; details: Enterococcus faecium; Streptococcus faecium EI19 (Penicillin resistant); read-out: in vitro activities MIC
From the text: as §1

Structure (SMILES) | MIC (Candida albicans ZA) [µg/mL] | MIC (S. aureus CJ234F) [µg/mL] | MIC [1] [µg/mL] | MIC (Asbergillus niger ZM35) [µg/mL] | MIC (E. coli HA165) [µg/mL] | MIC [2] [µg/mL] | MIC (S. aureus CJ200) [µg/mL] | MIC (S. epidermis CK5) [µg/mL] | MIC [3] [µg/mL] | MIC (S. aureus CJ247) [µg/mL] | MIC [4] [µg/mL] | MIC [5] [µg/mL] | MIC (S. aureus N6) [µg/mL] | MIC [6] [µg/mL]
CC(=O)O[C@H]1C[C@@]2(C)C(CCC3[C@@]4(C)CC[C@@H](OS(=O)(=O)O)[C@@H](C)C4CC[C@@]32C)[C@@H]1[C@H](CCCC(C)C)C(=O)NCCCNCCCCNCCCN (stereo partly drawn) [Compound 177, 21-N-[3′-({4′-[(3′-aminopropyl)amino]butyl}amino)propyl]-3-OSO3-11-desoxy-17,20,24,25-tetrahydrofusid-21-amide] | 64 (≈ 83.2 µM) | 1 (≈ 1.3 µM) | 1 (≈ 1.3 µM) | 16 (≈ 20.8 µM) | 16 (≈ 20.8 µM) | 16 (≈ 20.8 µM) | 1 (≈ 1.3 µM) | 1 (≈ 1.3 µM) | 4 (≈ 5.2 µM) | 1 (≈ 1.3 µM) | 1 (≈ 1.3 µM) | 125 (≈ 163 µM) | 4 (≈ 5.2 µM) | –
CC(C)CCCC(C(=O)NCCCNCCCCNCCCN)[C@@H]1CC[C@@]2(C)C1C[C@@H](O)C1[C@@]3(C)CC[C@@H](O)[C@@H](C)C3CC[C@@]12C (stereo partly drawn) [Compound 146, 21-N-{[3′-({4′-[(3′-aminopropyl)amino]butyl}amino)propyl]}-16-desacetoxy-17R,20S,24,25-tetrahydrofusid-21-amide] | > 125 | 1 (≈ 1.55 µM) | 1 (≈ 1.55 µM) | > 125 | 4 (≈ 6.18 µM) | 16 (≈ 24.7 µM) | 1 (≈ 1.55 µM) | 1 (≈ 1.55 µM) | 1 (≈ 1.55 µM) | 1 (≈ 1.55 µM) | 1 (≈ 1.55 µM) | 4 (≈ 6.18 µM) | 1 (≈ 1.55 µM) | 1 (≈ 1.55 µM)
CC(=O)O[C@H]1C[C@@]2(C)C(CCC3[C@@]4(C)CC[C@@H](O)[C@@H](C)C4CC[C@@]32C)[C@@H]1[C@H](CCCC(C)C)C(=O)NCCNCCCNCCN (stereo partly drawn) [Compound 133] | 32 (≈ 49.5 µM) | 4 (≈ 6.18 µM) | 4 (≈ 6.18 µM) | 32 (≈ 49.5 µM) | 16 (≈ 24.7 µM) | 16 (≈ 24.7 µM) | 4 (≈ 6.18 µM) | 4 (≈ 6.18 µM) | 4 (≈ 6.18 µM) | 4 (≈ 6.18 µM) | 4 (≈ 6.18 µM) | 32 (≈ 49.5 µM) | 4 (≈ 6.18 µM) | 4 (≈ 6.18 µM)
CC(C)CCCC(C(=O)NCCNCCCNCCN)[C@H]1CC[C@@]2(C)C1CCC1[C@@]3(C)CC[C@@H](O)[C@@H](C)C3CC[C@@]12C (stereo partly drawn) [Compound 152, 21-N-[2′-({3′-[(2′-aminoethyl)amino]propyl}amino)ethyl]-11-desoxy-16-desacetoxy-17S,20,24,25-tetrahydrofusid-21-amide] | > 125 | 4 (≈ 6.79 µM) | 1 (≈ 1.7 µM) | > 125 | 4 (≈ 6.79 µM) | 8 (≈ 13.6 µM) | 4 (≈ 6.79 µM) | 2 (≈ 3.4 µM) | – | 4 (≈ 6.79 µM) | – | > 125 | 4 (≈ 6.79 µM) | –
CC(=O)O[C@H]1C[C@@]2(C)C(C[C@@H](O)C3[C@@]4(C)CC[C@@H](O)[C@@H](C)C4CC[C@@]32C)[C@@H]1[C@H](CCCC(C)C)C(=O)NCCCCNCCCNCCCCN (stereo partly drawn) [Compound 123, 21-N-[4′-({3′-[(4′-aminobutyl)amino]propyl}amino)butyl]-17R,20S,24,25-tetrahydrofasid-21-amide] | 16 (≈ 22.2 µM) | 4 (≈ 5.56 µM) | 4 (≈ 5.56 µM) | 4 (≈ 5.56 µM) | 16 (≈ 22.2 µM) | 16 (≈ 22.2 µM) | 4 (≈ 5.56 µM) | 4 (≈ 5.56 µM) | 4 (≈ 5.56 µM) | 4 (≈ 5.56 µM) | 4 (≈ 5.56 µM) | 16 (≈ 22.2 µM) | 4 (≈ 5.56 µM) | 4 (≈ 5.56 µM)
CC(=O)O[C@H]1C[C@@]2(C)C(C[C@@H](O)C3[C@@]4(C)CC[C@@H](O)[C@@H](C)C4CC[C@@]32C)[C@@H]1[C@H](CCCC(C)C)C(=O)NCCCNCCCCNCCCN (stereo partly drawn) [Compound 125, 21-N-[3′-({4′-[(3′-aminopropyl)amino]butyl}amino)propyl]-17R,20S,24,25-tetrahydrofusid-21-amide] | 16 (≈ 22.7 µM) | 1 (≈ 1.42 µM) | 1 (≈ 1.42 µM) | 16 (≈ 22.7 µM) | 16 (≈ 22.7 µM) | 16 (≈ 22.7 µM) | 1 (≈ 1.42 µM) | 1 (≈ 1.42 µM) | 4 (≈ 5.67 µM) | 1 (≈ 1.42 µM) | 1 (≈ 1.42 µM) | 16 (≈ 22.7 µM) | 1 (≈ 1.42 µM) | 16 (≈ 22.7 µM)
CC(C)CCCC(C(=O)NCCCCNCCCN)[C@H]1CC[C@@]2(C)C1CCC1[C@@]3(C)CC[C@@H](O)[C@@H](C)C3CC[C@@]12C (stereo partly drawn) [Compound 154, 21-N-{4′-[(3′-aminopropyl)amino]butyl}-11-desoxy-16-desacetoxy-17S,20,24,25-tetrahydrofusid-21-amide] | > 125 | 4 (≈ 6.97 µM) | 0.5 (≈ 0.871 µM) | > 125 | 8 (≈ 13.9 µM) | 16 (≈ 27.9 µM) | 4 (≈ 6.97 µM) | 1 (≈ 1.74 µM) | – | 4 (≈ 6.97 µM) | – | > 125 | 4 (≈ 6.97 µM) | –
CC(=O)O[C@H]1C[C@@]2(C)C(C[C@@H](O)C3[C@@]4(C)CC[C@@H](O)[C@@H](C)C4CC[C@@]32C)[C@@H]1[C@H](CCCC(C)C)C(=O)NCCCCNCCCN (stereo partly drawn) [Compound 121, 21-N-{4′-[(3′-aminopropyl)amino]butyl}-17R,20S,24,25-tetrahydrofusid-21-amide] | 16 (≈ 24.7 µM) | 4 (≈ 6.17 µM) | 4 (≈ 6.17 µM) | 64 (≈ 98.8 µM) | 16 (≈ 24.7 µM) | – | 4 (≈ 6.17 µM) | 4 (≈ 6.17 µM) | 16 (≈ 24.7 µM) | 4 (≈ 6.17 µM) | 4 (≈ 6.17 µM) | 16 (≈ 24.7 µM) | 16 (≈ 24.7 µM) | 16 (≈ 24.7 µM)
CC(=O)O[C@H]1C[C@@]2(C)C(CCC3[C@@]4(C)CC[C@@H](OS(=O)(=O)O)[C@@H](C)C4CC[C@@]32C)[C@@H]1[C@H](CCCC(C)C)C(=O)NCCCNCCCNCCCN (stereo partly drawn) [Compound 180] | 64 (≈ 84.8 µM) | 1 (≈ 1.32 µM) | 1 (≈ 1.32 µM) | 4 (≈ 5.3 µM) | 16 (≈ 21.2 µM) | 64 (≈ 84.8 µM) | 1 (≈ 1.32 µM) | 4 (≈ 5.3 µM) | 16 (≈ 21.2 µM) | 1 (≈ 1.32 µM) | 1 (≈ 1.32 µM) | 125 (≈ 166 µM) | 1 (≈ 1.32 µM) | –
